Calls of active or inactive are those of the source. The calls are words filed in the database; no cut-off is given here.

Data set [1] addresses T1, NAD-dependent protein deacetylase sirtuin-2 (Homo sapiens, UniProt Q8IXJ6).
T1 sequence (Q8IXJ6 whole entry): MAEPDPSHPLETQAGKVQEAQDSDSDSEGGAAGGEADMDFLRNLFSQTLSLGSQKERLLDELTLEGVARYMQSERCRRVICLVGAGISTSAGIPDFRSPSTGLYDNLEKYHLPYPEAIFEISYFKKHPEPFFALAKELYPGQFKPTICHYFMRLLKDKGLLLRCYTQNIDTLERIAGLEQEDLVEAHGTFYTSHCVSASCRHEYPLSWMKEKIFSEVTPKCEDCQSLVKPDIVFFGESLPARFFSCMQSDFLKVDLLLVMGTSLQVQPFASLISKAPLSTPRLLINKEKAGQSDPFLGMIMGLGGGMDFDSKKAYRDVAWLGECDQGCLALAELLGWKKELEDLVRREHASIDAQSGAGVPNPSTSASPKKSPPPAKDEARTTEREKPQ
The data set can be described thus: Inhibition of human sirutin 2 assessed as inhibition of susbtrate demyristoylation at 20 uM using (Z)-(Myr)-Lys-AMC as substrate relative to control.

In data set [2] the target is T2, NAD-dependent protein deacetylase (Schistosoma mansoni) (UniProt T1VXA1).
T2 sequence (whole entry): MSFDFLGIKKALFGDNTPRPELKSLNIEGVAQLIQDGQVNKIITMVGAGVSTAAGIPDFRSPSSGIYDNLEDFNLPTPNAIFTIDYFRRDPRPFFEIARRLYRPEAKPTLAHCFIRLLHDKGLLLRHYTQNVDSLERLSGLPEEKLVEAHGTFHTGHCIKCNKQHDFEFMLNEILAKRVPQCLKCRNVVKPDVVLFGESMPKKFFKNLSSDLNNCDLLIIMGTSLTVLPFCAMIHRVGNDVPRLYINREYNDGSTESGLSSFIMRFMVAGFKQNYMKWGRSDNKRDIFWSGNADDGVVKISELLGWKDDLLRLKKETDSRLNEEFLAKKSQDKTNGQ
The data set can be described thus: Inhibition of recombinant Schistosoma mansoni sirtuin 2 (21 to 322 residues) expressed in Escherichia coli BL21(DE3) cells assessed as inhibition of substrate deacetylation at 20 uM using ZMAL as substrate relative to control.

The target of data set [3] is T2, NAD-dependent protein deacetylase (Schistosoma mansoni). Put plainly: Inhibition of recombinant Schistosoma mansoni sirtuin 2 (21 to 322 residues) expressed in Escherichia coli BL21(DE3) cells assessed as inhibition of substrate demyristoylation at 20 uM using (Z)-(Myr)-Lys-AMC as substrate relative to control.
Data set [4] deals with T1, NAD-dependent protein deacetylase sirtuin-2. The data set can be described thus: Inhibition of human sirtuin 2 assessed as inhibition of substrate deacetylation using ZMAL as substrate.
The target in data set [5] is T2, NAD-dependent protein deacetylase (Schistosoma mansoni). The data set can be described thus: Inhibition of recombinant Schistosoma mansoni sirtuin 2 (21 to 322 residues) expressed in Escherichia coli BL21(DE3) cells assessed as inhibition of substrate demyristoylation at 20 uM using (Z)-(Myr)-Lys-AMC as susbtrate after 1 hr in presence of NAD+ by homogeneous fluorescence based analysis relative to control.

Data set [6] concerns the target T3, NAD-dependent protein deacetylase (Schistosoma mansoni, UniProt T1VXA1).
T3 sequence (T1VXA1 whole entry): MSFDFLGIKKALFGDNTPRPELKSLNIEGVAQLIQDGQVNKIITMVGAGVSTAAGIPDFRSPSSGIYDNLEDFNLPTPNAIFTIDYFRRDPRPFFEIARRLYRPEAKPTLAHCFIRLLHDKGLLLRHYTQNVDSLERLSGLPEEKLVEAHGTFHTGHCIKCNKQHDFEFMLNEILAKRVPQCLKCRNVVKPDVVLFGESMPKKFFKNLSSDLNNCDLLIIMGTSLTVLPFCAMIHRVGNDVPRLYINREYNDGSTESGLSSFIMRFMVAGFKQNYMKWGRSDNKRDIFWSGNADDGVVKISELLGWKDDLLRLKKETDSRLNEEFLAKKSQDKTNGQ
Put plainly: Inhibition of recombinant Schistosoma mansoni sirtuin 2 (21 to 322 residues) expressed in Escherichia coli BL21(DE3) cells assessed as inhibition of substrate demyristoylation using (Z)-(Myr)-Lys-AMC as susbtrate after 1 hr in presence of NAD+ by homogeneous fluorescence based analysis.

For data set [7], the system named is Schistosoma mansoni. The data set can be described thus: Antiparasitic activity against adult Schistosoma mansoni Puerto Rico assessed as reduction in egg laying at 10 to 20 uM after 24 hrs by microscopic analysis. The data set is classed as functional, organism-based.
In data set [8] the test system is Schistosoma mansoni. The data set can be described thus: Antiparasitic activity against Schistosoma mansoni Puerto Rico assessed as reduction in parasite viability at 10 to 20 uM after 72 hrs by microscopic analysis. The data set is classed as functional, organism-based.
In data set [9] the target is T3, NAD-dependent protein deacetylase. Put plainly: Inhibition of recombinant Schistosoma mansoni sirtuin 2 (21 to 322 residues) expressed in Escherichia coli BL21(DE3) cells using ZMAL as substrate after 1 hr in presence of NAD+ by homogeneous fluorescence based analysis.
Data set [10] has as its system Schistosoma mansoni. The data set can be described thus: Antiparasitic activity against adult Schistosoma mansoni Puerto Rico assessed as reduction in worm pairing at 10 to 20 uM after 24 hrs by microscopic analysis. The data set is classed as functional, organism-based.
Data set [11] addresses T1, NAD-dependent protein deacetylase sirtuin-2. Put plainly: Inhibition of N-terminal His6 tagged human sirtuin 2 (25 to 389 residues) at 50 uM using Cbz-Lys(acetyl)-AMC as substrate after 4 hrs in presence of NAD+ by homogeneous fluorescence based analysis relative to control.
For data set [12] the target is unchanged. The data set can be described thus: Inhibition of N-terminal His6 tagged human sirtuin 2 (25 to 389 residues) assessed as inhibition of substrate demyristoylation at 20 uM using (Z)-(Myr)-Lys-AMC as susbtrate after 4 hrs in presence of NAD+ by homogeneous fluorescence based analysis relative to control.
Data set [13] deals with HL-60. Put plainly: Cytotoxicity against human HL60 cells at 10 uM after 72 hrs by Cell titer MTS dye based analysis. Conditions: hl-60, 72 h.
Data set [14] addresses T1, NAD-dependent protein deacetylase sirtuin-2. The data set can be described thus: Inhibition of N-terminal His6 tagged human sirtuin 2 (25 to 389 residues) at 25 uM using Cbz-Lys(acetyl)-AMC as substrate after 4 hrs in presence of NAD+ by homogeneous fluorescence based analysis relative to control.
Substrate in data set [15]: NC(=O)c1ccc[n+]([C@H]2O[C@@H](COP(=O)([O-])OP(=O)(O)OC[C@H]3O[C@@H](n4cnc5c(N)ncnc54)[C@H](O)[C@@H]3O)[C@H](O)[C@@H]2O)c1
Put plainly: Substrate activity at recombinant Schistosoma mansoni sirtuin 2 (21 to 322 residues) expressed in Escherichia coli BL21(DE3) cells assessed as Km up to 30 mins in presence of PSDKac at saturating concentration by RP-HPLC analysis. Type of data set: ADME.

Substrate in data set [16]: NC(=O)c1ccc[n+]([C@H]2O[C@@H](COP(=O)([O-])OP(=O)(O)OC[C@H]3O[C@@H](n4cnc5c(N)ncnc54)[C@H](O)[C@@H]3O)[C@H](O)[C@@H]2O)c1
Put plainly: Substrate activity at recombinant Schistosoma mansoni sirtuin 2 (21 to 322 residues) expressed in Escherichia coli BL21(DE3) cells assessed as Km up to 30 mins in presence of ZMML at saturated concentration by homogeneous fluorescence based analysis. The data set is classed as ADME.

Substrate in data set [17]: NC(=O)c1ccc[n+]([C@H]2O[C@@H](COP(=O)([O-])OP(=O)(O)OC[C@H]3O[C@@H](n4cnc5c(N)ncnc54)[C@H](O)[C@@H]3O)[C@H](O)[C@@H]2O)c1
Put plainly: Substrate activity at recombinant Schistosoma mansoni sirtuin 2 (21 to 322 residues) expressed in Escherichia coli BL21(DE3) cells assessed as Km up to 30 mins in presence of PSDKmyr at saturating concentration by RP-HPLC analysis. Type of data set: ADME.

Substrate in data set [18]: CCCCCCCCCCCCCCCC(=O)NCCCC[C@H](NC(=O)OCc1ccccc1)C(=O)Nc1ccc2c(C)cc(=O)oc2c1
The data set can be described thus: (§1) Substrate activity at recombinant Schistosoma mansoni sirtuin 2 (21 to 322 residues) expressed in Escherichia coli BL21(DE3) cells assessed as Km up to 30 mins by homogeneous fluorescence based analysis. The data set is classed as ADME.

Substrate in data set [19]: CC(=O)N[C@@H](CCCCN)C(=O)Nc1ccc2c(C)cc(=O)oc2c1
The data set is described as §1. Type of data set: ADME.

Substrate in data set [20]: NC(=O)c1ccc[n+]([C@H]2O[C@@H](COP(=O)([O-])OP(=O)(O)OC[C@H]3O[C@@H](n4cnc5c(N)ncnc54)[C@H](O)[C@@H]3O)[C@H](O)[C@@H]2O)c1
The data set can be described thus: Substrate activity at recombinant Schistosoma mansoni sirtuin 2 (21 to 322 residues) expressed in Escherichia coli BL21(DE3) cells assessed as Km up to 30 mins in presence of ZMAL at saturated substrate concentration by homogeneous fluorescence based analysis. Type of data set: ADME.

Substrate in data set [21]: CCCCCCCCCCCCCC(=O)NCCCC[C@H](NC(=O)[C@H](CC(=O)O)NC(=O)[C@H](CO)NC(=O)[C@@H]1CCCN1C(C)=O)C(=O)N[C@@H](Cc1ccc(O)cc1)C(=O)N[C@H](C(=O)NCC(=O)NCC(=O)N[C@@H](Cc1c[nH]c2ccccc12)C(=O)N[C@@H](Cc1c[nH]c2ccccc12)C(N)=O)[C@@H](C)CC
Put plainly: Substrate activity at recombinant Schistosoma mansoni sirtuin 2 (21 to 322 residues) expressed in Escherichia coli BL21(DE3) cells assessed as Km up to 30 mins by RP-HPLC analysis. The data set is classed as ADME.

Regarding `O=C(NCc1cccnc1)c1ccc2c(c1)C1C3CCC(C3)C1C(c1ccccc1)N2` (stereo not drawn), the inhibition at 20 µM in data set [1] came out at 42.8%. The inhibition in data set [2] and in data set [3] was less than 15% throughout. Moreover, the half-inhibitory concentration (IC50) in [4] was 2.5 µM.

In the case of `COc1ccc(Oc2ccc(C(C)N(C)c3ncc4c(N)nc(N)nc4n3)cc2)cc1` (stereo not drawn), the Imax in [5] was determined as 45%. Further, the half-inhibitory concentration (IC50) in data set [6] worked out at 16.8 µM; in data set [9], 23.7 µM. The inhibition entry in data set [7], in [8] and in data set [10] was “Active” in each case. Further, the inhibition at 50 µM in [11] was 24.1%. Also, in data set [12], the inhibition at 20 µM was less than 15%. For the same molecule, the Activity entry in data set [13] is “Non-Toxic”. Besides, the inhibition at 25 µM in data set [14] was 21.9%.

B1: NAD-dependent protein deacetylase (Schistosoma mansoni) (protein)
chain: MSFDFLGIKKALFGDNTPRPELKSLNIEGVAQLIQDGQVNKIITMVGAGVSTAAGIPDFRSPSSGIYDNLEDFNLPTPNAIFTIDYFRRDPRPFFEIARRLYRPEAKPTLAHCFIRLLHDKGLLLRHYTQNVDSLERLSGLPEEKLVEAHGTFHTGHCIKCNKQHDFEFMLNEILAKRVPQCLKCRNVVKPDVVLFGESMPKKFFKNLSSDLNNCDLLIIMGTSLTVLPFCAMIHRVGNDVPRLYINREYNDGSTESGLSSFIMRFMVAGFKQNYMKWGRSDNKRDIFWSGNADDGVVKISELLGWKDDLLRLKKETDSRLNEEFLAKKSQDKTNGQ
In the case of B1, the Km in data set [15] came out at 33.9 µM; in [16] it was 9.3 µM; in [17], 13.3 µM; in data set [18], 37.5 µM; in data set [19], 59 µM; in data set [20] it was 75.8 µM. Besides, the Km in [21] was 15.1 µM. Besides, the catalytic constant (kcat) is 0.00172 s⁻¹ in data set [15], 0.00538 s⁻¹ in data set [17], 0.000119 s⁻¹ in data set [20] and 0.00563 s⁻¹ in [21]. The figures for the catalytic efficiency (kcat/Km) in data set [15], in [17] and in data set [21] were 51 M⁻¹ s⁻¹, 410 M⁻¹ s⁻¹ and 370 M⁻¹ s⁻¹, respectively.

Usually inhibition stands for the percentage by which the read-out fell short of the control. As usually defined, the IC50 is the concentration that gives 50% inhibition. As usually defined, the Km is the substrate concentration at which the rate is half of its maximum. What is called kcat is the maximal rate divided by the concentration of active sites. As usually defined, the kcat/Km is the second-order rate constant that governs catalysis at low substrate concentration.

Source of the values: ChEMBL document CHEMBL4321809, “Structure-Reactivity Relationships on Substrates and Inhibitors of the Lysine Deacylase Sirtuin 2 from Schistosoma mansoni (SmSirt2)” (J Med Chem, 2019).
